The text below walks through data of patent publication US7875289B2, “Compositions of less immunogenic and long-circulating protein-lipid complexes” (The Research Foundation of State University of New York, priority 2006, dated 2011).

For the test, the target named is T1, BDDrFVIII (Homo sapiens, UniProt P00451).
T1 construct: Deletion of the B domain leads to a less heterogenic, genetically engineered rFVIII that corresponds to the shortest form of pdFVIII (e.g. ˜170 KDa)
T1 sequence (P00451 with tags, fused parts or gaps DEL765-1658): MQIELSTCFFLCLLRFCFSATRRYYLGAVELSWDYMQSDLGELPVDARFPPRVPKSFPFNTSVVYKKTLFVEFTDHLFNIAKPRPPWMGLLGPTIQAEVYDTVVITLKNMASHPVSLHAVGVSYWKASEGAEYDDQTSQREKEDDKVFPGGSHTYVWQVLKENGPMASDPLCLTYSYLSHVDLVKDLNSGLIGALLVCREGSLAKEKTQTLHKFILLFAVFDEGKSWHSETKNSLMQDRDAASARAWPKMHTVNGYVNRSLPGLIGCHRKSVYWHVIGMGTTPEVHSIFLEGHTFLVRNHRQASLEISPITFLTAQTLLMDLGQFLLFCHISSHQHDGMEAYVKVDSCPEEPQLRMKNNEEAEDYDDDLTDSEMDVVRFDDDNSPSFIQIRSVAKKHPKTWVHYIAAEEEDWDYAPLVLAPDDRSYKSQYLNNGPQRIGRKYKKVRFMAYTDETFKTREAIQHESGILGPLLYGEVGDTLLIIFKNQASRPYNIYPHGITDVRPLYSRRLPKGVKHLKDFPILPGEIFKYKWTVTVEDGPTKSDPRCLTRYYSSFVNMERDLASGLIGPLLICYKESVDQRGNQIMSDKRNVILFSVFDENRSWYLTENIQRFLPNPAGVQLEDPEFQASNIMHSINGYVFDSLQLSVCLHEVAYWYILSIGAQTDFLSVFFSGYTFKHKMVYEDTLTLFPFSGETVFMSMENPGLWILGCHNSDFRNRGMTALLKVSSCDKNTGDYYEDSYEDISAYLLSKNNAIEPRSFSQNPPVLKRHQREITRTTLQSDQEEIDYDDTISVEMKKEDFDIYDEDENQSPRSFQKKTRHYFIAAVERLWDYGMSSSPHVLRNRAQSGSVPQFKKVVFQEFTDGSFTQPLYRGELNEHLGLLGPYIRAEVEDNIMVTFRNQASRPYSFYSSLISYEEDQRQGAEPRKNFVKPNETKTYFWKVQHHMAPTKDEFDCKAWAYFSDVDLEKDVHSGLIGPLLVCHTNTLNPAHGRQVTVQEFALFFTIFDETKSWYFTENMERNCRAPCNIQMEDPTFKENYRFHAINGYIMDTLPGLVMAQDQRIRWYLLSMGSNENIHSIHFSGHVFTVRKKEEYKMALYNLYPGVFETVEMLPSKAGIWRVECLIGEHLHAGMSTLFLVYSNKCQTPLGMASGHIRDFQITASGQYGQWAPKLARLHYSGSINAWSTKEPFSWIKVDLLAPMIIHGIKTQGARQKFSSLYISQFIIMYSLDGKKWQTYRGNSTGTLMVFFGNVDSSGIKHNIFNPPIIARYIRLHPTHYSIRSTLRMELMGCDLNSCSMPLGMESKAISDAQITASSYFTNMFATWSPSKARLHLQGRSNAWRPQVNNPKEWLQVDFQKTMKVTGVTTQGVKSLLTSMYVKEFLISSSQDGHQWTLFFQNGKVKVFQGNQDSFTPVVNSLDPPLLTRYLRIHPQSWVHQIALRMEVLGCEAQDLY
Kind of test: Dissociation constant of lipid head group - BDDrFVIII interaction by intrinsic fluorescence. The class given is binding. The settings on record: excitation 285 nm, emission 330 nm, protein 3 ug/mL. The protocol: This examples describes the preparation of PS containing liposomes that were used for comparison with the PI containing lipidic structures in other Examples. BDDrFVIII was mixed with solution containing different concentration of O-phospho-L-serine (OPLS) or phosphocholine in such a way that the final protein concentration is maintained constant at 3 ug/mL. The OPLS or phosphocholine concentration vared between 0 and 100 uM. Each mixture is incubated for 5 minutes before subjecting to further analysis.
The intrinsic fluorescent of BDDrFVIII in the presence of increasing concentration of phospholipids head group was measured with a Quanta Master PTI instrument. The excitation was set to 285 nm and the emission was recorded at peak maximum (e.g. 330 nm). The normalized fluorescence (F/F0) data was plotted vs. [lipid] and used for the determination of the dissociation constant for lipid head group—BDDrFVIII interaction.

Turning to `N[C@@H](COP(=O)(O)O)C(=O)O` [OPLS, O-phospho-L-serine], binding was characterised by a dissociation constant (Kd) of 70.2 µM. In other words, the double-digit micromolar range.

As for `C[N+](C)(C)CCOP(=O)([O-])O` [phophocholine, phosphocholine], the Kd (commonly the free concentration of one partner at which half of the binding sites on the other are occupied at equilibrium, for simple one-to-one binding) was 24.2 µM.
